What was measured:
[1] = Dispersion in water (photographs, FIG. 1); format: physicochemical
[2] = test system: Caco-2 cells, HT-29 cells and Raji-B cells; assay: Cell uptake of curcumin in three-cell model, flow cytometry; conditions: curcumin 20 μg/mL, 4 hours; verapamil 300 μg/mL, sodium azide 1 mg/mL, ketoconazole 10 μg/mL

dispersion in water (in words) [1]: insoluble in water
average value (intake of curcumin by cells, fluorescence) [2]: 19.4
SMILES: COc1cc(/C=C/C(=O)CC(=O)/C=C/c2ccc(O)c(OC)c2)ccc1O [Curcumin raw material, Curcumin]

Reference: patent US12485096B2 (CHENLAND NUTRITIONALS, INC., priority 2020, dated 2025)
